Consider one compound from US12382954B2, “Pinocembrin dihydrochalcone and compositions thereof and their use as pesticides” (METABOLIC INSIGHTS LTD., priority 2019, dated 2025).

Assay [1] has as its system Fusarium oxysporum. Description: In planta validation, cucumber seedlings infected with Fusarium oxysporum. The assay is classed as in vivo. The conditions noted are these: 3 weeks after infection, 3 independent experiments.
In assay [2] the test system is Pseudoperonospora cubensis. The assay is classed as cell-based. The conditions noted are these: 50 ppm.
The test system of assay [3] is Phytophthora infestans. The assay is classed as cell-based. The conditions noted are these: 50 ppm, tomato leaf discs, % of maximal value (grade x repeats/12).
Assay [4] concerns Botrytis cinerea. The assay is classed as cell-based. The conditions noted are these: 50 ppm.
The test system of assay [5] is Puccinia sorghi. In kind it is cell-based. The conditions noted are these: 50 ppm.
The test system of assay [6] is Rhizoctonia solani. In kind it is cell-based. The note with it: 50 ppm.
Assay [7] deals with Phytophthora infestans. The assay is classed as in vivo. The conditions noted are these: tomato detached leaf experiment, 500-1000 ppm, spray on leaves, 6 days after infection.
The test system of assay [8] is Spodoptera litoralis. The experiment in a line: In-vitro screening matrix, Spodoptera litoralis. The note with it: 50 ppm.
The subject of assay [9] is Pectobacterium carotovorum. The assay is classed as cell-based. The note with it: 50 ppm.
For assay [10], the system named is Mizus Persicae. Description: In-vitro screening matrix, Mizus Persicae. The conditions noted are these: 50 ppm.
Assay [11] relates to Pseudomonas syringae. The assay is classed as cell-based. The note with it: 50 ppm.
In assay [12] the test system is Fusarium oxysporum. The assay is classed as cell-based. The conditions noted are these: 50 ppm.
Assay [13] concerns Pythium aphanidermatum. The experiment in a line: In planta validation, cucumber seedlings infected with Pythium aphanidermatum (soil drench). The assay is classed as in vivo. The note with it: 4 days after infection, 150 ppm-500 ppm, 2 independent experiments.
The test system of assay [14] is Sclerotinia sclerotiorum. In kind it is cell-based. The conditions noted are these: 50 ppm.
The subject of assay [15] is Xanthomonas campestris. The assay is classed as cell-based. The conditions noted are these: 50 ppm.
Assay [16] relates to Puccinia triticina. In kind it is cell-based. The note with it: 50 ppm.
The subject of assay [17] is Pythium aphanidermatum. In kind it is cell-based. The note with it: 50 ppm.

Regarding `O=C(CCc1ccccc1)c1c(O)cc(O)cc1O` [Pinocembrin dihydrochalcone, 3-phenyl-1-(2,4,6-trihydroxyphenyl)propan-1-one], the “range of efficacy in preventing and controlling the Fusarium diseases” value in assay [1] (100 ppm and 200 ppm) is reported as 66-100%; in [1] (300 ppm), 88-100%. The “Relative Activity value (%)” value is 50% in assay [2]; 100% in assay [3]; 0% in [4]; 0% in assay [5]; 6% in assay [6]; 0% in assay [8]. In addition, the “Relative Activity value (%)” value in [9] is reported as 12%; in [10], 0%; in [11], 6%; in assay [12], 9%; in assay [14], 6%; in assay [15], 50%. Further, the “Relative Activity value (%)” value in [16] came out at 19%; in [17] it was 100%. Also, the “control of Phytophthora infestans” value in [7] was “up to 100%”. Further, the “range of efficacy in preventing and controlling the Pythium disease” value in assay [13] is reported as “up to 100%”.
